Data taken from patent publication US9595012B2, “Method for improving the environmental impact of formulated products” (Johnson & Johnson Consumer Inc., priority 2010, dated 2017).

Legend:
fish [1] = experiment: Acute aquatic toxicity, vertebrate/secondary consumer, 50% lethality; settings: scale 0-100, from LC50 by Table 5
aquatic organisms = experiment: Overall toxicity scoring (minimum organism-specific toxicity score); settings: scale 0-100; minimum of the organism-specific scores
Method: Using the linear scoring scale in Table 5 (below), each of the three organism L(E)C50 values (i.e., LC50 or EC50 values) are transformed to an organism-specific toxicity score for the ingredient. If the organism-specific toxicity score is based on an estimated L(E)C50 value rather than an empirical L(E)C50 value, that score is reduced by an uncertainty penalty (e.g., 5 points).
The overall ingredient toxicity score is determined as the minimum organism-specific toxicity score. If no score could be determined for one class of aquatic indicator organism (i.e., primary producer, primary consumer, secondary consumer), the overall ingredient toxicity score is reduced by an uncertainty penalty (e.g., 5 points). If no score could be determined for two classes of aquatic indicator organisms, the overall ingredient score is reduced by a larger uncertainty penalty (e.g., 10 points).
The process used for ingredients that are organic compounds is also used for ingredients that are inorganic compounds with the following exceptions: (1) only empirical data are considered, as models for predicting the aquatic toxicity of metals are not widely available; (2) the toxicity of the ingredient and all plausible environmental degradants are calculated. The lowest Toxicity score among the ingredient and its plausible environmental degradants is assigned as the final Toxicity score for the ingredient.

fish [2] = settings: 50% lethality, empirical acute study; cited from earlier work
algae [3] = experiment: Acute aquatic toxicity, aquatic plant/primary producer, 50% inhibition in growth rate; settings: scale 0-100, from EC50 by Table 5
water flea [4] = experiment: Acute aquatic toxicity, invertebrate/primary consumer, 50% immobilization; settings: scale 0-100, from EC50 by Table 5
water flea [5] = settings: 50% immobilization, empirical acute study; cited from earlier work
algae [6] = settings: 50% inhibition in growth rate, empirical acute study; cited from earlier work

Compound | Fish toxicity score (fish [1]) | Toxicity score (aquatic organisms) | Fish LC50 (fish [2]) | Aquatic Plant toxicity score (algae [3]) | Invertebrate toxicity score (water flea [4]) | Invertebrate EC50 (water flea [5]) | Aquatic Plant EC50 (algae [6])
OCC(O)CO [Glycerin] | 100 | 100 | 5,000 mg/L | 100 | 100 | 10,000 mg/L | 46,000 mg/L
[Zn+2] [Zn^2+] | – | zero | – | – | – | – | –
[O]=[Zn] [zinc oxide] | – | zero | – | – | – | – | –
